Reference: US20220016079A1, “COMBINATION TREATMENT OF HIV INFECTIONS” (priority 2018, published 2022)
Where “and” joins values, the source holds several entries; their conditions need not be identical. Identical values can stand only once.

What was measured:
[1] = system: 2D10 cells; experiment: Cytotoxicity by LDH assay in 2D10 cells; type: cell-based; conditions: 0 to 20 μM, 48 h
Method: Drug titration was conducted.
For analysis of cell viability, cells (100,000 cells/100 μL) were treated in triplicate for 48 h with increasing concentrations of Debio-1143 or other known LRAs (0 to 20 μM). Cellular cytotoxicity was analyzed by Lactate dehydrogenase (LDH) assay. LDH is an oxidoreductase enzyme that catalyzes the interconversion of pyruvate and lactate. Cells release LDH into the bloodstream after tissue damage or red blood cell hemolysis. Since LDH is a fairly stable enzyme, it has been widely used to evaluate the presence of damage and toxicity of tissue and cells. In this particular, LDH reduces NAD to NADH, which is specifically detected by colorimetric (490 nm) assay.

[2] = system: latent HIV-1 in 2D10 cells; experiment: HIV-1 reactivation in latent GFP-reporter 2D10 cells, Debio 1143 and other LRAs alone or in combination; type: cell-based; conditions: single agents, 48 h
Method: We compared the efficacy of Debio-1143 at reversing HIV-1 latency with that of other LRAs. We then analyzed the cytotoxicity of Debio-1143 with that of the other LRAs on 2D10 cells. Drug titration was conducted.
Methods: HIV-1 latent GFP-reporter 2D10 cells (100,000 cells/100 μL) were treated in triplicate for 48 h with increasing concentrations of either only Debio-1143 or the LRAs (2000 nM or 20000 nM), or with Debio 1143 (2000 nM or 20000 nM) in combination with the LRAs at a single predetermined concentration (see Table 2). HIV reactivation was analyzed via GFP expression by flow cytometry.

[3] = system: latent HIV in resting CD4+ T-lymphocytes; experiment: HIV-1 reactivation in resting CD4+ T cells from PBMCs of three ART-treated HIV patients (HIV RNA in supernatant); type: cell-based, human
From the text: The experiments of this example analyzed the ability of IAPa, ICIs, or IAPa/ICI combinations at reactivating latent HIV in resting CD4+ T-lymphocytes isolated from peripheral blood monocytic cells (PBMCs) derived from HIV patients currently under ART.
Method: Resting CD4+ T cells were isolated from PBMCs of three ART-treated HIV patients by negative selection and magnetic separation (Easysep Mouse/Human Chimera Isolation Kits from […] technologies). Isolated resting CD4+ T cells (50,000 cells/50 μL) were treated in duplicate for 48h with different IAPa (1 μM) or ICI (10 μg/ml) in monotherapy, or the IAPa/ICI combinations. Amounts of virions released from cells were quantified at the indicated time points by quantifying HIV RNA levels (HIV RNA copies/mL) in supernatant of cell culture using one-step reverse transcriptase quantitative real-time PCR (ABI custom TaqMan Assays-by-Design) according to the manufacturer's instructions. Primers were 5-[…]-3 and 5-[…]-3, and MGB probe 5-FAM-[…]-Q-3, where FAM is 6-carboxyfluorescein.
The experiment was carried out using the same agents as described above for Example 8.1 (with the exception that no birinapant was used).

[4] = system: HIV-1 (JR-CSF); experiment: Efficacy study in HIV-1 infected humanized BLT mice: viral RNA levels in organ reservoirs (qPCR); type: in vivo
From the text: Methods: Humanized BLT mice were generated by implanting human fetal liver and thymus tissues under the kidney capsule of an immunodeficient NOD scid gamma (NSG=NOD.Cg-Prkdc^scidII12rg^tm1Wjl/SzJ) mouse, followed by an administration of autologous human fetal liver CD34+ cells (human hematopoietic stem cells). In BLT mice, T cell education occured in the human thymic tissue, resulting in complete systemic reconstitution of all major human hematopoietic lineages including T, B, monocyte/macrophage, dendritic, and natural killer cells. The extensive systemic and genital mucosal reconstitution with human lymphoid cells rendered female humanized BLT mice susceptible to both vaginal and rectal HIV infection.
Humanized BLT mice were generated by implanting 1-mm^3 pieces of human fetal liver and thymus tissues (Advanced Bioscience Resources) under the kidney capsule in 6 to 8-week-old female NSG mice (Jackson Laboratories) bred at The Scripps Research Institute (TSRI). Each cohort was produced with tissues from a single donor. CD34+ HSPC were purified from autologous fetal liver tissue, isolated by magnetic bead selection for CD34+ cells (Miltenyi), phenotyped cytometrically for engraftment success (CD34+, HLA DR-), and cryopreserved until injection (200,000 CD34+ cells) into mice 3 weeks after thymus/liver implantation. Human reconstitution was verified by flow cytometry (CD45+, CD3+, CD4+ and CD8+) in peripheral blood of the mice.
R5 HIV (JR-CSF) was produced by 293T transfection and quantified by p24 ELISA. Humanized mice were infected with JR-CSF (200 ng of p24) and viral replication quantified weekly by qPCR for up to 16 weeks.
Methods: Thirty-two BLT mice were infected with HIV-1. 12 weeks later mice were split in 4 groups (n=8), treated with various regimen and analyzed for 6 weeks. Group A received both vehicles for 4 weeks. Group B received Debio-1143 (100 mg/kg; QD1-5, p.o.) for 4 weeks (Debio-1143 was given 5 days a week for 4 weeks). Group C received the anti-PD-1 antibody (200 μg/dose, i.p., BIW) for 4 weeks. Group D received the combination of Debio-1143 (100 mg/kg; QD1-5, p.o.) together with the anti-PD-1 antibody (200 μg/dose i.p. BIW) for 4 weeks. Body weight, HIV-1 loads and PD-1 expression on CD8+ T cells were analyzed once weekly. After the 4 weeks of treatment, three mice per group were sacrificed for bioanalytical assessments. The remaining mice (4×5=20) were sacrificed 2 weeks after treatment completion and viral RNA levels in organ reservoirs (spleen, thymic organoid, lung, spleen, lymph nodes and liver) were quantified by qPCR.

In the case of `CN[C@@H](C)C(=O)N[C@H]1CN(C(=O)CC(C)C)CC[C@H]2CC[C@@H](C(=O)NC(c3ccccc3)c3ccccc3)N2C1=O` [Debio 1143, (5S,8S,10aR)-N-benzhydryl-5-((S)-2-(methylamino)propanamido)-3-(3-methylbutanoyl)-6-oxodecahydropyrrolo[1,2-a][1,5]diazocine-8-carboxamide], the “cytotoxicity (LDH assay)” value [1] is reported as “did not exhibit any cytotoxicity”, the “HIV-1 latency reversal (GFP expression)” value [2] is reported as “reversed HIV-1 latency” and the “potency as LRA compared with other LRAs” value [2] is reported as “one of the most potent LRA”. The “latency reversal class (HIV RNA copies/ml in supernatant)” value (“latency reversal class” for short) ([3]; IAPa 1 μM monotherapy (0.1% DMSO, no ICI), 48 h) was 1 (Between 501 and 1000 RNA copies/ml were classified as “1”), the “latency reversal class” value ([3]; IAPa 1 μM with Control IgG1, 48 h) was 1 (Between 501 and 1000 RNA copies/ml were classified as “1”) and the “latency reversal class” value ([3]; IAPa 1 μM with Control IgG2, 48 h) was 1 (Between 501 and 1000 RNA copies/ml were classified as “1”). The “HIV load in organs (viral RNA levels in organ reservoirs)” value ([4]; 2 weeks after treatment completion, CD4+ cells of spleen, thymic organoid, lung, lymph nodes, liver) was “has no effect”, the “Tissue HIV Load at Week 18, Liver” value ([4]; individual mice #1-5) was 5.2 Log Viral RNA Copies/100,000 CD4+ Cells and 4.2 Log Viral RNA Copies/100,000 CD4+ Cells and 4.9 Log Viral RNA Copies/100,000 CD4+ Cells and 5.5 Log Viral RNA Copies/100,000 CD4+ Cells and 5.9 Log Viral RNA Copies/100,000 CD4+ Cells and the “Tissue HIV Load at Week 18, Lung” value ([4]; individual mice #1-5) was 3.9 Log Viral RNA Copies/100,000 CD4+ Cells and 5.7 Log Viral RNA Copies/100,000 CD4+ Cells and 4.4 Log Viral RNA Copies/100,000 CD4+ Cells and 6.1 Log Viral RNA Copies/100,000 CD4+ Cells and 6.5 Log Viral RNA Copies/100,000 CD4+ Cells. The “Tissue HIV Load at Week 18, Lymph nodes” value ([4]; individual mice #1-5) was 4.4 Log Viral RNA Copies/100,000 CD4+ Cells and 5 Log Viral RNA Copies/100,000 CD4+ Cells and 5.3 Log Viral RNA Copies/100,000 CD4+ Cells and 6.3 Log Viral RNA Copies/100,000 CD4+ Cells and 7.2 Log Viral RNA Copies/100,000 CD4+ Cells, the “Tissue HIV Load at Week 18, Spleen” value ([4]; individual mice #1-5) was 4.4 Log Viral RNA Copies/100,000 CD4+ Cells and 6.4 Log Viral RNA Copies/100,000 CD4+ Cells and 5.2 Log Viral RNA Copies/100,000 CD4+ Cells and 5.5 Log Viral RNA Copies/100,000 CD4+ Cells and 6.7 Log Viral RNA Copies/100,000 CD4+ Cells and the “Tissue HIV Load at Week 18, Thymic organoid” value ([4]; individual mice #1-5) was 4.6 Log Viral RNA Copies/100,000 CD4+ Cells and 5.3 Log Viral RNA Copies/100,000 CD4+ Cells and 3.9 Log Viral RNA Copies/100,000 CD4+ Cells and 5.7 Log Viral RNA Copies/100,000 CD4+ Cells and 6.2 Log Viral RNA Copies/100,000 CD4+ Cells. For the same molecule, the “Tissue HIV Load at Week 18, Liver” value ([4]; mean of 5 mice) was 5.14 Log Viral RNA Copies/100,000 CD4+ Cells, the “Tissue HIV Load at Week 18, Lung” value ([4]; mean of 5 mice) was 5.32 Log Viral RNA Copies/100,000 CD4+ Cells and the “Tissue HIV Load at Week 18, Lymph nodes” value ([4]; mean of 5 mice) was 5.64 Log Viral RNA Copies/100,000 CD4+ Cells. The “Tissue HIV Load at Week 18, Spleen” value ([4]; mean of 5 mice) was 5.64 Log Viral RNA Copies/100,000 CD4+ Cells and the “Tissue HIV Load at Week 18, Thymic organoid” value ([4]; mean of 5 mice) was 5.14 Log Viral RNA Copies/100,000 CD4+ Cells.
